The target of data set [1] is Chymotrypsinogen A (Bos taurus, UniProt P00766). Description: Enzymatic stability assessed as bovine pancreatic alpha-chymotrypsin-mediated compound hydrolysis by measuring parent compound remaining at 100 uM incubated for 1 hr by LC-MS/MS analysis. It counts as ADME. The following applies: cattle, read-out: Stabilty.
The target of data set [2] is Chymotrypsin-like elastase family member 1 (Sus scrofa, UniProt P00772). Description: Enzymatic stability assessed as porcine type 4 pancreatic elastase-mediated compound hydrolysis by measuring parent compound remaining at 100 uM incubated for 1 hr by LC-MS/MS analysis. In kind it is ADME. The note with it: pig, read-out: Stabilty.
Chain of Chymotrypsin-like elastase family member 1 (P00772 whole entry): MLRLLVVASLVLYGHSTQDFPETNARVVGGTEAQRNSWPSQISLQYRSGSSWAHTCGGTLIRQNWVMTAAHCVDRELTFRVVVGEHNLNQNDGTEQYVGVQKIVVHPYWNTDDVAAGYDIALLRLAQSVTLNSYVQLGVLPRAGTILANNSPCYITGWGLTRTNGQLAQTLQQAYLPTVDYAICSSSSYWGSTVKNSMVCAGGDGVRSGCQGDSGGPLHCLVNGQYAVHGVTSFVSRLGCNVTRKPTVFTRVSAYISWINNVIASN
Data set [3] is described as follows: Enzymatic stability assessed as porcine pepsin-mediated compound hydrolysis by measuring parent compound remaining at 100 uM incubated for 1 hr by LC-MS/MS analysis. In kind it is ADME, Sus scrofa. The note with it: pig, read-out: Stabilty.
Data set [4] in a line: Enzymatic stability assessed as bovine pancreatic trypsin-mediated compound hydrolysis by measuring parent compound remaining at 100 uM incubated for 1 hr by LC-MS/MS analysis. It counts as ADME, Bos taurus. The following applies: cattle, read-out: Stabilty.
A short description of data set [5]: Half life in cynomolgus monkey whole blood at 100 uM by LC-MS/MS analysis. It counts as ADME, tissue-based, Macaca fascicularis.
Data set [6] deals with Proprotein convertase subtilisin/kexin type 9 (Homo sapiens, UniProt Q8NBP7). The data set is described as follows: Inhibition of AlexaFluor647-tagged cyclic peptide binding to avi-tagged-biotinylated human PCSK9 measured after 2 hrs by Lance Streptavidin Europium based FRET assay.
Chain of Proprotein convertase subtilisin/kexin type 9 (Q8NBP7 31-152 limits assumed): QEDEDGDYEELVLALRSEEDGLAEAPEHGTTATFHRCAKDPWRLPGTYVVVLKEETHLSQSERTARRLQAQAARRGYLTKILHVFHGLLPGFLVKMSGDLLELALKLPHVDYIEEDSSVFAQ
Chain of Proprotein convertase subtilisin/kexin type 9 (Q8NBP7 153-692 limits assumed): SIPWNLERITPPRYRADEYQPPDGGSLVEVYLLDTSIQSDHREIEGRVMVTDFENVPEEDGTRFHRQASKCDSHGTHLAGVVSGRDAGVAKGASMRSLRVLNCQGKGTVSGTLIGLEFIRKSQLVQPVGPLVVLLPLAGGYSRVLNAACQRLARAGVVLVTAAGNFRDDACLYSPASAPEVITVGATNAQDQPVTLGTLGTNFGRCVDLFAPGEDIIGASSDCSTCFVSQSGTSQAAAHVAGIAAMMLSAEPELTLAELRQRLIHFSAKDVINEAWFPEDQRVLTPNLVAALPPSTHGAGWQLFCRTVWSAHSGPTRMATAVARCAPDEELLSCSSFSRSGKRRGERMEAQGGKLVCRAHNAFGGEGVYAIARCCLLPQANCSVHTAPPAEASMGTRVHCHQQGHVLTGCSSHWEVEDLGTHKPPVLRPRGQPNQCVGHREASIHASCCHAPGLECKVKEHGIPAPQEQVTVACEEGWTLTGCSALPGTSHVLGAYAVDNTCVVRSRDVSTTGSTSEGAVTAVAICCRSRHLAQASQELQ
The nature of data set [7]: AUC (0 to infinity) in Wistar Han rat at 1 mg/kg, iv by LC-MS/MS analysis. In kind it is ADME, organism-based. The arrangement: route intravenous, time infinity, dose 1 mg/kg. The note with it: in vivo.
A short description of data set [8]: AUC (0 to X) in Wistar Han rat at 1 mg/kg, iv by LC-MS/MS analysis. It counts as ADME, organism-based. The note with it: in vivo. The arrangement: dose 1 mg/kg.
The nature of data set [9]: Volume of distribution at steady state in Wistar Han rat at 1 mg/kg, iv by LC-MS/MS analysis. The following applies: in vivo, read-out: Vdss. It counts as ADME, organism-based.
Data set [10] is described as follows: Half life in Wistar Han rat at 1 mg/kg, iv by LC-MS/MS analysis. In kind it is ADME, organism-based. The note with it: in vivo.
A short description of data set [11]: Protein binding in Wistar Han rat plasma. In kind it is ADME, cell-free. The following applies: read-out: PPB (converted).
Data set [12] can be described thus: AUC (0 to infinity) in cynomolgus monkey at 0.5 mg/kg, iv by LC-MS/MS analysis. In kind it is ADME, organism-based, Macaca fascicularis. The arrangement: time infinity, route intravenous, dose 0.5 mg/kg. The note with it: in vivo.
Data set [13] is described as follows: AUC (0 to X) in cynomolgus monkey at 0.5 mg/kg, iv by LC-MS/MS analysis. In kind it is ADME, organism-based, Macaca fascicularis. Set-up: dose 0.5 mg/kg. The note with it: in vivo.
Data set [14] is described as follows: Clearance in cynomolgus monkey at 0.5 mg/kg, iv by LC-MS/MS analysis. It counts as ADME, organism-based, Macaca fascicularis. The following applies: in vivo.
Data set [15] is described as follows: Volume of distribution at steady state in cynomolgus monkey at 0.5 mg/kg, iv by LC-MS/MS analysis. It counts as ADME, organism-based, Macaca fascicularis. The following applies: in vivo, read-out: Vdss.
Data set [16] is described as follows: Half life in cynomolgus monkey at 0.5 mg/kg, iv by LC-MS/MS analysis. The following applies: in vivo. In kind it is ADME, organism-based, Macaca fascicularis.
A short description of data set [17]: Protein binding in cynomolgus monkey plasma. The following applies: read-out: PPB (converted). In kind it is ADME, cell-free, Macaca fascicularis.

The values that follow come from ChEMBL document CHEMBL4699634, “Series of Novel and Highly Potent Cyclic Peptide PCSK9 Inhibitors Derived from an mRNA Display Screen and Optimized via Structure-Based Design” (J Med Chem, 2020).

The term half-life denotes the time needed for the level to fall by half in the phase considered. A word on the Ki: it is a measure of affinity in units of concentration, obtained from inhibition or displacement. For orientation: AUC means concentration integrated over time. The term AUC(0-inf) denotes total exposure, with the tail of the curve extrapolated. As a reminder, the clearance is the volume of plasma or blood freed of the substance per unit of time.

For the compound `COc1ccc(C[C@@H]2NC(=O)[C@H]([C@@H](C)O)NC(=O)[C@@H]3CCCN3C(=O)[C@@H]3Cc4cn(c5ccc(F)cc45)Cc4cn(nn4)-c4cc(cc(c4)CSCCC(=O)N[C@@H](C)C(=O)N[C@H](C)C(=O)N[C@@H](Cc4c[nH]c5ccc(F)cc45)C(=O)N3)CSCCNC(=O)[C@]3(C)CCCN3C2=O)cc1`, the remaining at 1 h, 100 µM in data set [1] is 91.8%; in data set [2], 96.6%; in data set [3], 98.9%; in [4], 99.2%. Also, the half-life at 100 µM in data set [5] is > 6 h. The Ki in data set [6] was found to be 1.36 nM. Besides, the AUC in data set [7] was 0.0233 µM·h; in [8], 0.0194 µM·h; in data set [13], 0.304 µM·h. The Vd in [9] amounted to 0.48 L/kg; in data set [15], 1.06 L/kg. Further, the results for the half-life in [10] and in data set [16] were 3.6 min and 2.84 h, respectively. In addition, the fraction unbound in data set [11] was 0.003; in [17], 0.025. In data set [12], the AUC(0-inf) was found to be 0.306 µM·h. The compound further came in with a clearance in [14] of 20.1 mL/min/kg.
